Values of other authors as cited in US6417191B1, “Synergistic combinations of zidovudine, 1592U89 and 3TC” (GlaxoSmithKline, priority 1995, dated 2002).
Where two headings read alike, the source gives them in different places.

What was measured:
[1] = plasma, patients, therapeutic doses of each drug as a single agent

SMILES	activity against HIV (HIV)	Peak Level (in vivo)	Trough Level (in vivo)	Peak Level [1]	Trough Level [1]
Nc1ccn(C2CSC(CO)O2)c(=O)n1 (racemic) [BCH-189, 4-amino-1-(2-hydroxymethyl-1,3-oxathiolan-5-yl)-(1H)-pyrimidin-2-one]	anti-HIV activity	–	–	–	–
Nc1nc(NC2CC2)c2ncn([C@H]3C=C[C@@H](CO)C3)c2n1 (relative stereo) [1592U89, (1S,4R)-cis-4-[2-amino-6-(cyclopropylamino)-9H-purin-9-yl]-2-cyclopentene-1-methanol]	potent activity against HIV	3.5 µM	0.1 µM	–	–
Nc1nc(=O)n([C@@H]2CS[C@H](CO)O2)cc1F (relative stereo) [FTC, (2R,cis)-4-amino-5-fluoro-1-(2-hydroxymethyl-1,3-oxathiolan-5-yl)-(1H)-pyrimidin-2-one]	–	10 µM	0.5 µM	–	–
Nc1ccn([C@@H]2CS[C@H](CO)O2)c(=O)n1 (single isomer, unassigned) [3TC]	–	–	–	9 µM	0.7 µM
Cc1cn([C@H]2C[C@H](N=[N+]=[N-])[C@@H](CO)O2)c(=O)[nH]c1=O [zidovudine, 3′-azido-3′-deoxythymidine]	–	5 µM	0.4 µM	–	–
